One assay deals with T1, αvβ3 integrin receptor (Homo sapiens, UniProt P05106+P06756).
T1 construct: purchased Chemicon International Inc., Temecula, Calif
Description: Solid-phase receptor-binding assay, competition with [125I]-echistatin, αvβ3. Conditions: IC50 in the receptor high-affinity state; IC50±SD, average of three or more independent determinations; 0.05 nM [125I]echistatin. Here is the method: (§1) Integrin-coated 96-well plates were incubated with the ligand in the presence of serially diluted competing compounds.
(§2) Solid-Phase Receptor-Binding Assay (General Procedure). The receptor binding assays were performed as described previously (Kumar, C. C.; et al. J. Pharmacol. Exp. Ther. 1997, 283, 843). Purified αvβ3 and αvβ5 receptors (Chemicon International Inc., Temecula, Calif.) were diluted to 500 ng/mL and 1000 ng/mL, respectively, in coating buffer [20 mM Tris-HCl (pH 7.4), 150 mM NaCl, 2 mM CaCl2, 1 mM MgCl2 and 1 mM MnCl2]. An aliquot of diluted receptors (100 μL/well) was added to 96-well microtiter plates and incubated overnight at 4° C. Coating solution was removed and 200 μL of blocking solution (coating buffer plus 1% BSA) were added to the wells and incubated for additional 2 h at room temperature. After incubation, the plates were rinsed three times with 200 μL of blocking-binding solution and incubated for 3 h at room temperature with 0.05 nM and 0.1 nM [^125I]Echistatin (Amersham Pharmacia) for αvβ3 and αvβ5 receptor binding assays, respectively. After incubation, the plates were sealed and counted in the γ-counter (Packard).

A further assay has as its target T2, αvβ5 integrin receptor (Homo sapiens, UniProt P06756+P18084).
T2 construct: purchased Chemicon International Inc., Temecula, Calif
Description: Solid-phase receptor-binding assay, competition with [125I]-echistatin, αvβ5. The conditions noted are these: IC50±SD, average of three or more independent determinations, 0.1 nM [125I]echistatin. Here is the method:
as §1, §2

Where [1] appears, read: no high-affinity-state footnote.

Consider 4 molecules from patent US20100093612A1, “INTEGRIN TARGETED CYCLOPEPTIDE LIGANDS, THEIR PREPARATION AND USE” (priority 2007, published 2010).

By IC50 is commonly meant the point on the concentration scale where inhibition reaches its midpoint. Read a high IC50 as a need for much substance.

`CCCCCCCN1C[C@@H]2C[C@H]1C(=O)N[C@@H](CCCNC(=N)N)C(=O)NCC(=O)N[C@@H](CC(=O)O)C(=O)N2` [(Ip), c[-Arg-Gly-Asp-AMPRO15-]]: the IC50 came to 80 ± 20 pM on αvβ3 integrin receptor and 880 ± 230 pM at αvβ5 integrin receptor (IC50 in the receptor high-affinity state).
As to `CCC(=O)N1C[C@@H]2C[C@H]1C(=O)N[C@@H](CCCNC(=N)N)C(=O)NCC(=O)N[C@@H](CC(=O)O)C(=O)N2` [(Ih), c[Arg-Gly-Asp-AMPRO4-]], the IC50 at αvβ3 integrin receptor was determined as 30 ± 10 pM; on αvβ5 integrin receptor (setting [1]), 94000 ± 13000 pM.
In the same order, the values of `N=C(N)NCCC[C@@H]1NC(=O)[C@@H]2C[C@H](CN2C(=O)c2ccccc2)NC(=O)[C@H](CC(=O)O)NC(=O)CNC1=O` [(Ii), c[-Arg-Gly-Asp-AMPRO5-]] are 910 ± 400 pM and 89200 ± 5400 pM.
In the same order, the values of `N=C(N)NCCC[C@@H]1NC(=O)[C@@H]2C[C@@H](CN2C(=O)c2ccccc2)NC(=O)[C@H](CC(=O)O)NC(=O)CNC1=O` [(If), c[-Arg-Gly-Asp-AMPRO2-]] are 160 ± 30 pM and 86600 ± 5700 pM.
